Measurements published in patent US10711278B2, “Genetically altered alfalfa producing clovamide and/or related hydroxycinnamoyl amides” (The United States of America, as represented by the …, priority 2015, dated 2020).

Legend:
[1] = cited from earlier work
[2] = In-vitro hydroxycinnamoyl-CoA transferase activity of soluble E. coli extracts expressing HDT1 or HDT2, HPLC of products; type: biochemical, Trifolium pratense; conditions: expressed in E. coli; p-coumaroyl-, caffeoyl-, and feruloyl-CoA
Description: Plasmids containing full-length red clover HDT coding regions (both HDT1 (SEQ ID NO: 1) and HDT2 (SEQ ID NO: 3)) were used as templates in PCR reactions with primers designed to introduce an […] restriction site at the start codons (ms886—SEQ ID NO: 13) and an XhoI site immediately following the stop codon (ms887—SEQ ID NO: 14) of each open reading frame. The resulting PCR products were digested with NcoI and XhoI and inserted into pET28a (Novagen, Madison, Wis.) digested with NcoI and XhoI. The insert is operably linked to the IPTG-inducible promoter contained in pET28. Each plasmid was sequenced to confirm correct sequence was generated.
Each pET28 derivative containing HDT coding regions (pET28-HDT1 and pET28-HDT2) or pET28 (as a negative control) were transformed, individually, into BL21(DE3)RIL Codon Plus E. coli (Agilent Technologies, Santa Clara, Calif.). […] The soluble fraction was isolated, divided into single use aliquots, flash frozen in liquid nitrogen and stored at −80° C. until ready to use. […]
The supernatant is analyzed for reaction products by HPLC. […]

Row | Molecule | HDT activity ([1]; HCT2 gene product produced in E. coli) | preference for p-coumaroyl-CoA and feruloyl-CoA donor substrates over caffeoyl-CoA ([1]; in-vitro) | transfer of trans-hydroxycinnamoyl moiety from CoA derivative to L-DOPA or L-tyrosine [2]
1 | hydroxycinnamoyl-CoA:malate hydroxycinnamoyl transferase [HMT] | does not have HDT activity | five- to tenfold | –
2 | hydroxycinnamoyl-CoA:L-DOPA/tyrosine hydroxycinnamoyl transferase 1 (protein, Trifolium pratense) MVTIIASHTVIPEEPTPQGPFWLSDMDQVVRIRDVPTLYIYKTPKKNQENKNIVETFKNSLSKILVHYYPIAGRLCYIEGGRLELNLNAKGAILVEAETEKTMNDYGDFSHFDTIKELVPMIDYNQPIEEIPNFVVQLTNFKNNEGFAIGVAFLHPLSDGLGAIKFINSWAKIARGETLEANELPFLDRKLLKFSHTPLEPRFEHLELKPLPLILGRKDASEEKEKKTSATLLKLSSEQVDKLKKKANEEDVLGIQKKEYSRPYSKFEVISAHIWRCASKARELEDNQESVIRFIADVKNRMIPPLPKNYFGNALTQTATKGYIGEITSKPLGYVAQKIREATELINDEYIRSQIDVVRSFEHLDDARKMFIGEKARYFGNPNFNLTSWLSMPVYEADFGWGKPNYFGLADVSPHDRAVILLSPDDDGSVLVSFHFQIAHMELFNKYFYEEI | – | – | capable of transferring a trans-hydroxycinnamoyl moiety
3 | hydroxycinnamoyl-CoA:L-DOPA/tyrosine hydroxycinnamoyl transferase 2 (protein, Trifolium pratense) MVTIIASHTVIPEEPTPQGPFWLSDMDQVVRIRDVPTLYIYKTPKKNQENKNIVETFKNSLSKILVHYYPIAGRLCYIEGGRLELNLNAKGAILVEAETEKTMNDYGDFSHFDTIKELVPMIDYNQPIEEIPNFVVQLTKFKNNEGFAIGVAFLHPLSDGLGAIKFINSWAKIARGETLEANELPFLDRKLLKFSHTPLEPRFEHLELKPLPLILGRKDASEEKEKKTSATLLKLSSEQVDKLKKKANEEDVLGVQKKEYSRPYSKFEVISAHIWRCASKARELKDNQESVIRFIADVKNRMIPPLPKNYFGNALTQTATKGYIGEITSKPLGYVAQKIREATELVNDEYIRSQIDVVRSFEHLDDARKMFIGEKARYFGNPNFNLTSWLSMPVYEADFGWGKPNYFGLADVSPHDRAVILLSPDDDGSVLVSFHLQIAHMELFNKYFYEEI | – | – | capable of transferring a trans-hydroxycinnamoyl moiety
